Consider three compounds from patent US10485256B2, “Stevia sweetener with improved solubility with a cyclodextrin” (EPC Natural Products Co., Ltd., priority 2014, dated 2019).

The nature of data set [1]: Stability test: period that the system remains in solution form, without precipitation. It counts as physicochemical. The following applies: 25° C.; for stability (period the system remain a solution form, without precipitation): Concentration 1 weight %. As to the method: Concentration of RA was weight (g) in 100 g of water.
The stability test was performed at ambient temperature (25° C.), and was in water.
The acidic aqueous conditions were formulated with citric acid and water, and the pH was 3.0.
Concentration of RA+RD was weight (g) in 100 g of water.
The stability test was performed at ambient temperature (25° C.) and was in water.
Concentration of RA+RB+RD was weight (g) in 100 g of water.
Concentration of RB or RD was weight (g) in 100 g of water.

Data set [2] is described as follows: Dissolution property at room temperature. It counts as physicochemical. As to conditions: concentration 1%; without a solublizer (no cyclodextrin); water.
[3] abbreviates: γ-cyclodextrin mole ratio 1, water.

Regarding `C=C1C[C@@]23CC[C@H]4[C@@](C)(CCC[C@@]4(C)C(=O)O[C@@H]4O[C@H](CO)[C@@H](O)[C@H](O)[C@H]4O)[C@@H]2CC[C@]1(O[C@@H]1O[C@H](CO)[C@@H](O)[C@H](O[C@@H]2O[C@H](CO)[C@@H](O)[C@H](O)[C@H]2O)[C@H]1O[C@@H]1O[C@H](CO)[C@@H](O)[C@H](O)[C@H]1O)C3` [RA, Rebaudioside A], the “stability (period the system remains in solution form, without precipitation)” value in data set [1] (acidic (citric acid, pH 3.0), RA 3.5 weight %, γ-cyclodextrin mole ratio 1) is on record as 120 h; in data set [1] (neutral, RA 3 weight %, γ-cyclodextrin mole ratio 0.5, water) it was 1 h; in data set [1] (neutral, RA 3 weight %, γ-cyclodextrin mole ratio 0.6, water), 2 h; in data set [1] (neutral, RA 3 weight %, γ-cyclodextrin mole ratio 0.7, water), 24 h; in data set [1] (neutral, RA 3 weight %, γ-cyclodextrin mole ratio 0.8, water), 52 h; in data set [1] (neutral, RA 3 weight %, γ-cyclodextrin mole ratio 0.85, water), 92 h. The “stability (period the system remains in solution form, without precipitation)” value in data set [1] (neutral, RA 3.5 weight %, γ-cyclodextrin mole ratio 0, water) amounted to 2 h; in data set [1] (neutral, RA 3.5 weight %, γ-cyclodextrin mole ratio 0.85, water), 160 h; in data set [1] (neutral, RA 3.5 weight %, γ-cyclodextrin mole ratio 1, water), 336 h.

As for `C=C1C[C@@]23CC[C@H]4[C@@](C)(CCC[C@@]4(C)C(=O)O[C@@H]4O[C@H](CO)[C@@H](O)[C@H](O)[C@H]4O[C@@H]4O[C@H](CO)[C@@H](O)[C@H](O)[C@H]4O)[C@@H]2CC[C@]1(O[C@@H]1O[C@H](CO)[C@@H](O)[C@H](O[C@@H]2O[C@H](CO)[C@@H](O)[C@H](O)[C@H]2O)[C@H]1O[C@@H]1O[C@H](CO)[C@@H](O)[C@H](O)[C@H]1O)C3` [RD, Rebaudioside D], in data set [2], the “formation of a solution” value is “did not form a solution”. Moreover, the “stability (period the system remain a solution form, without precipitation)” value in data set [1] (setting [3]) worked out at 48 h.

In the case of Rebaudioside B [RB], the “formation of a solution” value in data set [2] is reported as “did not form a solution”. Moreover, the “stability (period the system remain a solution form, without precipitation)” value in data set [1] (setting [3]) amounted to 0.333 h.
